Patent publication US10588893B2, “Ointment containing an oxazole compound” (OTSUKA PHARMACEUTICAL CO., LTD., priority 2015, dated 2020)

How the values were obtained:
[1] = Miscibility of compound (11) solvent solution with petrolatum; type: physicochemical
Text: (§1) To select a solvent for dissolving compound (11) in preparing an ointment containing compound (11), the solubility of compound (11) in various solvents was studied. […] Such a case may result in precipitation of compound (11). Thus, a solvent that has a high solubility of compound (11) but that has […] miscibility (compatibility) with petrolatum or paraffin is relatively preferable for use.

[2] = Solubility of compound (11) in various solvents; type: physicochemical
Text: as §1

Compound: CCOc1ccccc1C(=O)NCc1coc(-c2ccc(OC(F)F)c(OC(C)C)c2)n1 [Compound (11)]
- Miscibility of Compound (11) Solvent Solution with Petrolatum ([1]; solvent: Decyl oleate): Miscible
- Miscibility of Compound (11) Solvent Solution with Petrolatum ([1]; solvent: Diethyl sebacate): Miscible
- Miscibility of Compound (11) Solvent Solution with Petrolatum ([1]; solvent: Diisopropyl adipate): Miscible
- Miscibility of Compound (11) Solvent Solution with Petrolatum ([1]; solvent: Hexyldodecanol): Miscible
- Miscibility of Compound (11) Solvent Solution with Petrolatum ([1]; solvent: Isopropyl myristate): Miscible
- Miscibility of Compound (11) Solvent Solution with Petrolatum ([1]; solvent: Isostearic acid): Miscible
- Miscibility of Compound (11) Solvent Solution with Petrolatum ([1]; solvent: Isostearyl alcohol): Miscible
- Miscibility of Compound (11) Solvent Solution with Petrolatum ([1]; solvent: Liquid Paraffin): Miscible
- Miscibility of Compound (11) Solvent Solution with Petrolatum ([1]; solvent: Olive oil): Miscible
- Miscibility of Compound (11) Solvent Solution with Petrolatum ([1]; solvent: Propylene carbonate): Immiscible
- Miscibility of Compound (11) Solvent Solution with Petrolatum ([1]; solvent: Triacetine): Immiscible
- solubility of compound (11), in words ([2]; in triacetin and propylene carbonate): relatively high
- Solubility (W/W %) ([2]; solvent: Decyl oleate): 2.6 W/W %
- Solubility (W/W %) ([2]; solvent: Diethyl sebacate): 42.6 W/W %
- Solubility (W/W %) ([2]; solvent: Diisopropyl adipate): 40.3 W/W %
- Solubility (W/W %) ([2]; solvent: Hexyldodecanol): 5.4 W/W %
- Solubility (W/W %) ([2]; solvent: Isopropyl myristate): 6.0 W/W %
- Solubility (W/W %) ([2]; solvent: Isostearic acid): 19.8 W/W %
- Solubility (W/W %) ([2]; solvent: Isostearyl alcohol): 5.1 W/W %
- Solubility (W/W %) ([2]; solvent: Liquid Paraffin): 0.1 W/W %
- Solubility (W/W %) ([2]; solvent: Olive oil): 6.1 W/W %
- Solubility (W/W %) ([2]; solvent: Propylene carbonate): 56.9 W/W %
- Solubility (W/W %) ([2]; solvent: Triacetine): 32.5 W/W %
